Assay results: PubChem BioAssay (NCI)
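Exposure lasted 48 hours, with cells grown in 96-well plates and compounds tested at five concentrations. TGI: total growth inhibition.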

Experiments:
Assay in all cases: inhibition of tumour cell growth, NCI panel, 48 h
HOP-92 NSCLC = test system: HOP-92 NSCLC
MOLT-4 leukemia = test system: MOLT-4 leukemia
COLO 205 colon = test system: COLO 205 colon
HL-60(TB) leukemia = test system: HL-60(TB) leukemia
UO-31 renal = test system: UO-31 renal
NCI/ADR-RES ovarian = test system: NCI/ADR-RES ovarian
SK-MEL-28 melanoma = test system: SK-MEL-28 melanoma
UACC-62 melanoma = test system: UACC-62 melanoma
NCI-H23 lung = test system: NCI-H23 lung
IGROV1 ovarian = test system: IGROV1 ovarian
SK-OV-3 ovarian = test system: SK-OV-3 ovarian
CCRF-CEM leukemia = test system: CCRF-CEM leukemia
HCT-116 colon = test system: HCT-116 colon
SNB-75 CNS = test system: SNB-75 CNS
U251 CNS = test system: U251 CNS
ACHN renal = test system: ACHN renal
NCI-H226 lung = test system: NCI-H226 lung
RPMI-8226 leukemia = test system: RPMI-8226 leukemia
RXF 393 renal = test system: RXF 393 renal
SK-MEL-2 melanoma = test system: SK-MEL-2 melanoma
MCF7 breast = test system: MCF7 breast
PC-3 prostate = test system: PC-3 prostate
MALME-3M melanoma = test system: MALME-3M melanoma
SK-MEL-5 melanoma = test system: SK-MEL-5 melanoma
KM12 colon = test system: KM12 colon
TK-10 renal = test system: TK-10 renal
HOP-62 NSCLC = test system: HOP-62 NSCLC
BT-549 breast = test system: BT-549 breast
DU-145 prostate = test system: DU-145 prostate
NCI-H460 lung = test system: NCI-H460 lung
HT29 colon = test system: HT29 colon
OVCAR-5 ovarian = test system: OVCAR-5 ovarian
SN12C renal = test system: SN12C renal
M14 melanoma = test system: M14 melanoma
HCC-2998 colon = test system: HCC-2998 colon
HS 578T breast = test system: HS 578T breast
UACC-257 melanoma = test system: UACC-257 melanoma
A549 NSCLC = test system: A549 NSCLC
MDA-MB-435 = test system: MDA-MB-435
SR leukemia = test system: SR leukemia
SF-539 CNS = test system: SF-539 CNS
CAKI-1 renal = test system: CAKI-1 renal
SW-620 colon = test system: SW-620 colon
LOX IMVI melanoma = test system: LOX IMVI melanoma
SF-268 CNS = test system: SF-268 CNS
SF-295 CNS = test system: SF-295 CNS
NCI-H522 lung = test system: NCI-H522 lung
MDA-N = test system: MDA-N
EKVX NSCLC = test system: EKVX NSCLC
OVCAR-8 ovarian = test system: OVCAR-8 ovarian
K-562 leukemia = test system: K-562 leukemia
786-0 renal = test system: 786-0 renal
OVCAR-4 ovarian = test system: OVCAR-4 ovarian
OVCAR-3 ovarian = test system: OVCAR-3 ovarian
A498 renal = test system: A498 renal
SNB-19 CNS = test system: SNB-19 CNS
T-47D breast = test system: T-47D breast
HCT-15 colon = test system: HCT-15 colon
MDA-MB-231 breast = test system: MDA-MB-231 breast

For `O=C1NC(=Nc2ccccc2Cl)N/C1=C\c1ccc(Cl)cc1Cl`, the TGI (HOP-92 NSCLC) was over 100 µM, the TGI (MOLT-4 leukemia) was over 100 µM and the TGI (COLO 205 colon) was over 100 µM. The TGI (HL-60(TB) leukemia) was 1.84 µM, the TGI (UO-31 renal) was over 100 µM and the TGI (NCI/ADR-RES ovarian) was over 100 µM. It also gave a TGI (SK-MEL-28 melanoma) of over 100 µM, a TGI (UACC-62 melanoma) of over 100 µM and a TGI (NCI-H23 lung) of over 100 µM. It also gave a TGI (IGROV1 ovarian) of over 100 µM, a TGI (SK-OV-3 ovarian) of over 100 µM and a TGI (CCRF-CEM leukemia) of over 100 µM. It also gave a TGI (HCT-116 colon) of over 100 µM, a TGI (SNB-75 CNS) of 93 µM and a TGI (U251 CNS) of over 100 µM. The TGI (ACHN renal) was over 100 µM, the TGI (NCI-H226 lung) was 57.6 µM and the TGI (RPMI-8226 leukemia) was over 100 µM. The TGI (RXF 393 renal) was 40.1 µM, the TGI (SK-MEL-2 melanoma) was 58.4 µM and the TGI (MCF7 breast) was over 100 µM. The TGI (PC-3 prostate) was over 100 µM, the TGI (MALME-3M melanoma) was over 100 µM and the TGI (SK-MEL-5 melanoma) was over 100 µM. It also gave a TGI (KM12 colon) of over 100 µM, a TGI (TK-10 renal) of over 100 µM and a TGI (HOP-62 NSCLC) of over 100 µM. The TGI (BT-549 breast) was over 100 µM, the TGI (DU-145 prostate) was over 100 µM and the TGI (NCI-H460 lung) was over 100 µM. It also gave a TGI (HT29 colon) of over 100 µM, a TGI (OVCAR-5 ovarian) of over 100 µM and a TGI (SN12C renal) of 73.6 µM. For the same compound, the TGI (M14 melanoma) was over 100 µM, the TGI (HCC-2998 colon) was over 100 µM and the TGI (HS 578T breast) was over 100 µM. The TGI (UACC-257 melanoma) was over 100 µM, the TGI (A549 NSCLC) was over 100 µM and the TGI (MDA-MB-435) was over 100 µM. For the same compound, the TGI (SR leukemia) was over 100 µM, the TGI (SF-539 CNS) was over 100 µM and the TGI (CAKI-1 renal) was over 100 µM. It also gave a TGI (SW-620 colon) of over 100 µM, a TGI (LOX IMVI melanoma) of over 100 µM and a TGI (SF-268 CNS) of over 100 µM. It also gave a TGI (SF-295 CNS) of over 100 µM, a TGI (NCI-H522 lung) of over 100 µM and a TGI (MDA-N) of over 100 µM. It also gave a TGI (EKVX NSCLC) of over 100 µM, a TGI (OVCAR-8 ovarian) of over 100 µM and a TGI (K-562 leukemia) of over 100 µM. For the same compound, the TGI (786-0 renal) was over 100 µM, the TGI (OVCAR-4 ovarian) was over 100 µM and the TGI (OVCAR-3 ovarian) was over 100 µM. It also gave a TGI (A498 renal) of over 100 µM, a TGI (SNB-19 CNS) of over 100 µM and a TGI (T-47D breast) of over 100 µM. For the same compound, the TGI (HCT-15 colon) was over 100 µM.

`COC(=O)CNC(=O)CCC(C)[C@H]1CCC2C3C(C[C@H](OC(C)=O)[C@@]21C)[C@@]1(C)CCC2(C[C@H]1C[C@H]3OC(C)=O)OOC1(CCCCC1)OO2` (stereo not given in full) showed a TGI (HOP-92 NSCLC) of 2.72 µM, a TGI (MOLT-4 leukemia) of 11.9 µM and a TGI (COLO 205 colon) of 3.89 µM. The TGI (HL-60(TB) leukemia) was 5.1 µM, the TGI (UO-31 renal) was 3.3 µM and the TGI (NCI/ADR-RES ovarian) was 4.7 µM. For the same compound, the TGI (SK-MEL-28 melanoma) was 22.1 µM, the TGI (UACC-62 melanoma) was 21.7 µM and the TGI (NCI-H23 lung) was 3.64 µM. For the same compound, the TGI (IGROV1 ovarian) was 2.98 µM, the TGI (SK-OV-3 ovarian) was 25 µM and the TGI (CCRF-CEM leukemia) was 5.02 µM. For the same compound, the TGI (HCT-116 colon) was 6.25 µM, the TGI (SNB-75 CNS) was 5.3 µM and the TGI (U251 CNS) was 3.41 µM. The TGI (ACHN renal) was 3.85 µM, the TGI (NCI-H226 lung) was 4.65 µM and the TGI (RPMI-8226 leukemia) was 3.91 µM. It also gave a TGI (RXF 393 renal) of 4.23 µM, a TGI (SK-MEL-2 melanoma) of 6.49 µM and a TGI (MCF7 breast) of 13.9 µM. The TGI (PC-3 prostate) was 6.29 µM, the TGI (MALME-3M melanoma) was 6.22 µM and the TGI (SK-MEL-5 melanoma) was 8.12 µM. The TGI (KM12 colon) was 3.64 µM, the TGI (TK-10 renal) was 24.2 µM and the TGI (HOP-62 NSCLC) was 1.73 µM. For the same compound, the TGI (BT-549 breast) was 3.9 µM, the TGI (NCI-H460 lung) was 3.63 µM and the TGI (HT29 colon) was 7.44 µM. It also gave a TGI (OVCAR-5 ovarian) of 6.62 µM, a TGI (SN12C renal) of 3.17 µM and a TGI (M14 melanoma) of 8.28 µM. For the same compound, the TGI (HCC-2998 colon) was 5.98 µM, the TGI (HS 578T breast) was 6.7 µM and the TGI (UACC-257 melanoma) was 20.1 µM. It also gave a TGI (A549 NSCLC) of 3.36 µM, a TGI (MDA-MB-435) of 4.06 µM and a TGI (SR leukemia) of 4.21 µM. The TGI (SF-539 CNS) was 3.75 µM, the TGI (CAKI-1 renal) was 3.78 µM and the TGI (SW-620 colon) was 5.46 µM. The TGI (MDA-MB-231 breast) was 3.48 µM, the TGI (SF-268 CNS) was 3.59 µM and the TGI (SF-295 CNS) was 18.4 µM. For the same compound, the TGI (NCI-H522 lung) was 3.14 µM, the TGI (MDA-N) was 3.36 µM and the TGI (EKVX NSCLC) was 3.74 µM. For the same compound, the TGI (OVCAR-8 ovarian) was 4.16 µM, the TGI (K-562 leukemia) was 9.51 µM and the TGI (786-0 renal) was 3.48 µM. It also gave a TGI (OVCAR-4 ovarian) of 3.66 µM, a TGI (OVCAR-3 ovarian) of 3.77 µM and a TGI (A498 renal) of 34.4 µM. The TGI (SNB-19 CNS) was 17.8 µM, the TGI (T-47D breast) was 5.03 µM and the TGI (HCT-15 colon) was 8.65 µM.
